The assay concerns M. tuberculosis H37Rv growth inhibition with meropenem. Description: dose response, H37Rv, with and without meropenem (AID 434987).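 Also: growth over 7 days at 37 °C before Alamar Blue read on day 9.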
[1] abbreviates: M. tuberculosis H37Rv growth inhibition, measured here: IC50 without meropenem.
The mark [2] stands for this setting: M. tuberculosis H37Rv growth inhibition, measured here: IC90 without meropenem.
The mark [3] stands for this setting: measured here: IC90 with meropenem.

Activity calls are given as the source filed them. No rule for the calls is given here.

Results on 23 compounds are retold here after PubChem BioAssay AID434987 (Southern Research Specialized Biocontainment Screening …, 2010).

A word on the IC50: it is the concentration needed to halve the response being measured. As usually defined, the IC90 is the concentration at which the effect reaches the 90% level. High values mean weaker potency, low ones greater potency.

Regarding `O=C(CN1CCN(S(=O)(=O)c2ccc(F)cc2)CC1)Nc1ccc2c(c1)OCCO2`, the IC50 was 19.1 µM. Further, the IC50 under setting [1] worked out at 88.2 µM. In addition, the IC90 under setting [2] was > 100 µM. Moreover, the 90% effect concentration (IC90) under setting [3] is > 100 µM.

Turning to `CCN1C(=O)C(=Cc2ccc(N3CCOCC3)o2)C(=O)N(CC)C1=S`, the IC50 is > 100 µM (inactive). The IC50 under setting [1] was > 100 µM. Besides, the IC90 under setting [2] was > 100 µM. In addition, the IC90 under setting [3] is > 100 µM.

`CCN(CCNC(=O)Nc1ccc(Cl)cc1)c1ccccc1`: the IC50 is > 100 µM (inactive). Further, the IC50 under setting [1] is > 100 µM. In addition, the concentration for an effect of 90% (IC90) under setting [2] is > 100 µM. Further, the 90% effect concentration (IC90) under setting [3] is > 100 µM.

For the compound `CCOC(=O)CSc1nnc(CNC(=O)c2cccs2)n1CCc1ccccc1`, the IC50 was 20.1 µM (inactive). For the same compound, the IC50 under setting [1] is 35.2 µM. Moreover, the IC90 under setting [2] turned out to be 55.8 µM. This compound also returned an IC90 under setting [3] of 49.5 µM.

In the case of `C=C(C)C1Cc2c(C)nn(-c3cccc4ccccc34)c2C1` (configuration not stated), the half-maximal inhibitory concentration (IC50) was 15.4 µM. Besides, under setting [1], the 50% inhibitory concentration (IC50) turned out to be 39.2 µM. The IC90 under setting [2] amounted to 58.5 µM. The compound also yielded an IC90 under setting [3] of 47.4 µM.

As to `Cc1ccc(C)c(-n2c(-c3ccco3)n[nH]c2=S)c1`, the IC50 is 14 µM. This compound showed a half-maximal inhibitory concentration (IC50) under setting [1] of 48.9 µM. Further, under setting [2], the IC90 was > 100 µM. The IC90 under setting [3] was > 100 µM.

With `CC1(C)CCN2CCC(C)(C)c3c(O)ccc1c32`, the IC50 was 34.7 µM (inactive). The compound also gave a 50% inhibitory concentration (IC50) under setting [1] of 47.1 µM. Under setting [2], this compound registered an IC90 of 53 µM. Also, the concentration for an effect of 90% (IC90) under setting [3] stood at 49.3 µM.

Turning to `COc1ccc2nc(NC(=O)c3ccc(Br)s3)sc2c1`, the IC50 was > 100 µM (inactive). Moreover, the IC50 under setting [1] was > 100 µM. Besides, the concentration for an effect of 90% (IC90) under setting [2] was > 100 µM. Moreover, under setting [3], the concentration for an effect of 90% (IC90) is > 100 µM.

`O=C(CNC(=O)c1ccc(Br)cc1)NCC(=O)OCc1ccc(Cl)cc1`: the IC50 is 12.4 µM. Also, under setting [1], the IC50 is 56.9 µM. Under setting [2], the IC90 is > 100 µM. The IC90 under setting [3] is > 100 µM.

For the compound `CCc1sc2nc(SCC(=O)Nc3cc(C)on3)n(-c3cccc(OC)c3)c(=O)c2c1C`, the IC50 was > 100 µM (inactive). The IC50 under setting [1] was > 100 µM. Further, the concentration for an effect of 90% (IC90) under setting [2] is > 100 µM. For the same compound, the IC90 under setting [3] was > 100 µM.

Take `CC(=O)Nc1ccc(C(=O)N(C2=NC(C)CS2)c2ccc(Cl)cc2)cc1` (configuration not stated): the IC50 is 29.8 µM (inactive). In addition, under setting [1], the IC50 is 44.1 µM. In addition, under setting [2], the 90% effect concentration (IC90) is > 100 µM. The IC90 under setting [3] is > 100 µM.

In the case of `COc1ccc(C(=O)Nc2ccccc2C(=O)NC(C(=O)NCc2ccco2)C(C)C)cc1` (configuration not stated), the IC50 is > 100 µM (inactive). Besides, the IC50 under setting [1] is > 100 µM. The concentration for an effect of 90% (IC90) under setting [2] was > 100 µM. Under setting [3], the IC90 was > 100 µM.

With `CCOC(=O)COc1ccc2nsnc2c1`, the IC50 is 23.5 µM (inactive). Further, the half-maximal inhibitory concentration (IC50) under setting [1] came to 27 µM. Under setting [2], the concentration for an effect of 90% (IC90) is > 100 µM. Also, the 90% effect concentration (IC90) under setting [3] is 26 µM.

For the compound `NC(=S)N/N=C/c1ccc([N+](=O)[O-])cc1`, the IC50 is 31.7 µM. In addition, the concentration for half-maximal inhibition (IC50) under setting [1] was > 100 µM. Besides, under setting [2], the 90% effect concentration (IC90) is > 100 µM. Besides, the concentration for an effect of 90% (IC90) under setting [3] is > 100 µM.

For the compound `COc1ccnc(CS(=O)c2nc3cc(OC(F)F)ccc3[nH]2)c1OC` (configuration not stated), the IC50 is > 100 µM (inactive). Also, the IC50 under setting [1] is > 100 µM. Further, the IC90 under setting [2] is > 100 µM. Besides, the 90% effect concentration (IC90) under setting [3] was > 100 µM.

Consider `COc1cccc(NC(=O)C2CC2)c1`, for which the 50% inhibitory concentration (IC50) is 6.09 µM. In addition, the IC50 under setting [1] is > 100 µM. Further, under setting [2], the IC90 was > 100 µM. Besides, the concentration for an effect of 90% (IC90) under setting [3] was > 100 µM.

For `Cc1nn(-c2ccccc2)cc1/C=N/NC(N)=S`, the half-maximal inhibitory concentration (IC50) is 3.7 µM. The IC50 under setting [1] is > 100 µM. For the same compound, the IC90 under setting [2] was > 100 µM. Further, the concentration for an effect of 90% (IC90) under setting [3] was > 100 µM.

With `CC(=O)COc1ccc2c3c(c(=O)oc2c1C)CCCCC3`, the IC50 was > 100 µM (inactive). Also, under setting [1], the half-inhibitory concentration (IC50) is > 100 µM. In addition, the IC90 under setting [2] was > 100 µM. Besides, the IC90 under setting [3] was > 100 µM.

Take `C=CCN(C(=O)CN1CCOCC1)c1nc(C)c(-c2ccccc2)s1`: the IC50 is > 100 µM (inactive). The concentration for half-maximal inhibition (IC50) under setting [1] is > 100 µM. For the same compound, the IC90 under setting [2] was > 100 µM. Also, the 90% effect concentration (IC90) under setting [3] is > 100 µM.

On to `Cc1nnnn1/C(=C\c1ccccc1)C(=O)OCC(=O)NC1CCCCC1`, for which the IC50 is 8.62 µM (inactive). Under setting [1], this compound yielded an IC50 of 18.1 µM. For the same compound, the IC90 under setting [2] was found to be 27 µM. Also, the 90% effect concentration (IC90) under setting [3] worked out at 17.6 µM.

Regarding `NCCS`, the IC50 was > 100 µM (inactive). In addition, under setting [1], the half-maximal inhibitory concentration (IC50) is > 100 µM. Further, the IC90 under setting [2] is > 100 µM. The concentration for an effect of 90% (IC90) under setting [3] is > 100 µM.

Regarding `COc1ccc(NCC(=O)N/N=C/C(C)c2ccccc2)cc1` (configuration not stated), the IC50 was > 100 µM (inactive). In addition, the IC50 under setting [1] is > 100 µM. The concentration for an effect of 90% (IC90) under setting [2] is > 100 µM. Under setting [3], the IC90 is > 100 µM.

In the case of `CCCCCCCN(C(=O)CCl)c1ccccc1C`, the IC50 was 4.49 µM. The compound also came in with an IC50 under setting [1] of 11.8 µM. Besides, the 90% effect concentration (IC90) under setting [2] amounted to 37.3 µM. Under setting [3], this compound gave a concentration for an effect of 90% (IC90) of 35.2 µM.
